According to patent US12410171B2, “Tropomyosin receptor kinase (TRK) degradation compounds and methods of use” (Cullgen (Shanghai), Inc., priority 2020, dated 2025):
Read-outs that look alike come from different tables or passages of the source.

Tests used:
TPM3-TRKA fusion protein = biological target: T1, TPM3-TRKA fusion protein (Homo sapiens, UniProt P04629); experiment: TPM3-TRKA fusion protein levels in KM12 cells (Western blot); format: cell-based; conditions: read-out: Degradation (at 10 nM)
T1 construct: The resulted chimeric proteins always retain the kinase domain of TRK proteins; TPM3 (fusion partner, N-terminal part of tropomyosin alpha-3, P06753); endogenous in cells; host or cells: KM12 colon cancer cells; the other entry of the earlier key: TPM3 (P06753, Tropomyosin alpha-3 chain)
Method in brief: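 KM12 colon cancer cells were treated with DMSO or compounds at 0.1–100 nM, 0.4–30 nM or other stated concentrations for 4, 8–16 or 16 h. RIPA lysates were BCA-normalized and resolved by SDS-PAGE. TPM3-TRKA was detected by chemiluminescent Western blot, with bands quantified by densitometry.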

KM12 cells = experiment: KM12 cell viability (CellTiter-Glo); format: cell-based; conditions: Homo sapiens
Method in brief: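 KM12 cells seeded at 5000 per well in RPMI 1640 + 10% FBS and exposed 3 days to serial dilutions (11-point 3-fold, 8-point 3-fold from 1000 nM, or 12-point 2-fold). Viability by CellTiter-Glo; IC50 from least-squares nonlinear regression.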

[1] = 16 h, TPM3-TRKA degradation in KM12 cells at 10 nM compound, category of percentage degradation
[2] = 72 h, KM12 cell viability, CellTiter-Glo, three days treatment, read-out: IC50

T1 sequence (P04629 with tags, fused parts or gaps): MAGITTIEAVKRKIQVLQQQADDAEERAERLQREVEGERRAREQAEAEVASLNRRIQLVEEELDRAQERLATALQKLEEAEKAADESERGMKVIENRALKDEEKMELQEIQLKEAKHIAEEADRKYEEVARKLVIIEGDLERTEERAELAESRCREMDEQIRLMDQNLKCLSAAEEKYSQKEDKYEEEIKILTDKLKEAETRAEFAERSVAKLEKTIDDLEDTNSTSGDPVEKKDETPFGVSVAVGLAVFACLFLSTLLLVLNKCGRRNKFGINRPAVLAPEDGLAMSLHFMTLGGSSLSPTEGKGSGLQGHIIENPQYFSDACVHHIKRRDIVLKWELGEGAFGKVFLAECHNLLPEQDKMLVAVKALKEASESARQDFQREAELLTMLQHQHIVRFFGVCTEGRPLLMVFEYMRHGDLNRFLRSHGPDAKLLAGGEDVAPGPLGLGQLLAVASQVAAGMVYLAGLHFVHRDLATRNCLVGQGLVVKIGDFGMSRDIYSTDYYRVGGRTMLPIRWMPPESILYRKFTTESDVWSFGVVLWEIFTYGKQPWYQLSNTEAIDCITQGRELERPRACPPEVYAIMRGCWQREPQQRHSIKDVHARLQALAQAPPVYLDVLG

percent degradation of TPM3-TRKA protein at 0.01 µM (TPM3-TRKA fusion protein; [1]) [%]	Compound	IC50 (KM12 cells; [2]) [nM]	percent degradation of TPM3-TRKA protein at 0.01 µM (TPM3-TRKA fusion protein; KM12, 16 h) [%]	IC50 (KM12 cells; KM12, 72 h) [nM]
< 50	O=C1CCC(N2C(=O)c3ccc(N4CCN(c5ccc(C(=O)Nc6n[nH]c7ccc(Cc8cc(F)cc(F)c8)cc67)c(NC6CCOCC6)c5)CC4)cc3C2=O)C(=O)N1 (centres unmarked) [TR-269, N-(5-(3,5-Difluorobenzyl)-1H-indazol-3-yl)-4-(4-(2-(2,6-dioxopiperidin-3-yl)-1,3-dioxoisoindolin-5-yl)piperazin-1-yl)-2-((tetrahydro-2H-pyran-4-yl)amino)benzamide]	44.6		
> 80	O=C1CCC(N2C(=O)c3ccc(N4CCC(CN5CCN(c6ccc(C(=O)Nc7n[nH]c8ccc(Cc9cc(F)cc(F)c9)cc78)c(NC7CCOCC7)c6)CC5)C4)cc3C2=O)C(=O)N1 (centres unmarked) [TR-270, N-(5-(3,5-difluorobenzyl)-1H-indazol-3-yl)-4-(4-((1-(2-(2,6-dioxopiperidin-3-yl)-1,3-dioxoisoindolin-5-yl)pyrrolidin-3-yl)methyl)piperazin-1-yl)-2-((tetrahydro-2H-pyran-4-yl)amino)benzamide]	10.3		
> 80	O=C1CCC(N2C(=O)c3ccc(N4CCC(CN5CCN(c6ccc(C(=O)Nc7n[nH]c8ccc(Cc9cc(F)cc(F)c9)cc78)c(NC7CCOCC7)c6)CC5)CC4)cc3C2=O)C(=O)N1 (centres unmarked) [TR-271, N-(5-(3,5-Difluorobenzyl)-1H-indazol-3-yl)-4-(4-((1-(2-(2,6-dioxopiperidin-3-yl)-1,3-dioxoisoindolin-5-yl)piperidin-4-yl)methyl)piperazin-1-yl)-2-((tetrahydro-2H-pyran-4-yl)amino)benzamide]	22		
50 to 80	O=C1CCC(N2C(=O)c3ccc(N4CCCC(CN5CCN(c6ccc(C(=O)Nc7n[nH]c8ccc(Cc9cc(F)cc(F)c9)cc78)c(NC7CCOCC7)c6)CC5)C4)cc3C2=O)C(=O)N1 (centres unmarked) [TR-272]	20.1		
> 80	O=C1CCC(N2C(=O)c3ccc(NC(=O)CN4CCN(c5ccc(C(=O)Nc6n[nH]c7ccc(Cc8cc(F)cc(F)c8)cc67)c(NC6CCOCC6)c5)CC4)cc3C2=O)C(=O)N1 (centres unmarked) [TR-273, N-(5-(3,5-Difluorobenzyl)-1H-indazol-3-yl)-4-(4-(2-((2-(2,6-dioxopiperidin-3-yl)-1,3-dioxoisoindolin-5-yl)amino)-2-oxoethyl)piperazin-1-yl)-2-((tetrahydro-2H-pyran-4-yl)amino)benzamide]	41.1		
> 80	O=C1CCC(N2C(=O)c3ccc(CCCN4CCN(c5ccc(C(=O)Nc6n[nH]c7ccc(Cc8cc(F)cc(F)c8)cc67)c(NC6CCOCC6)c5)CC4)cc3C2=O)C(=O)N1 (centres unmarked) [TR-276, N-(5-(3,5-difluorobenzyl)-1H-indazol-3-yl)-4-(4-(3-(2˜ (2,6-dioxopiperidin-3-yl)-1,3-dioxoisoindolin-5-yl)propyl)piperazin-1-yl)-2-((tetrahydro-2H-pyran-4-yl)amino)benzamide]	9.9		
50 to 80	O=C1CCC(N2C(=O)c3ccc(N4CCCC(N5CCN(c6ccc(C(=O)Nc7n[nH]c8ccc(Cc9cc(F)cc(F)c9)cc78)c(NC7CCOCC7)c6)CC5)C4)cc3C2=O)C(=O)N1 (centres unmarked) [TR-278, N-(5-(3,5-Difluorobenzyl)-1H-indazol-3-yl)-4-(4-(1-(2-(2,6-dioxopiperidin-3-yl)-1,3-dioxoisoindolin-5-yl)piperidin-3-yl)piperazin-1-yl)-2-((tetrahydro-2/-pyran-4-yl)amino)benzamide]	34.7		
> 80	O=C1CCC(N2C(=O)c3ccc(CN4CCCC(N5CCN(c6ccc(C(=O)Nc7n[nH]c8ccc(Cc9cc(F)cc(F)c9)cc78)c(NC7CCOCC7)c6)CC5)C4)cc3C2=O)C(=O)N1 (centres unmarked) [TR-279, N-(5-(3,5-difluorobenzyl)-1H-indazol-3-yl)-4-(4-(1-((2-(2,6-dioxopiperidin-3-yl)-1,3-dioxoisoindolin-5-yl)methyl)piperidin-3-yl)piperazin-1-yl)-2-((tetrahydro-2H-pyran-4-yl)amino)benzamide]	19		
> 80	O=C1CCC(N2C(=O)c3ccc(CN4CCC(N5CCN(c6ccc(C(=O)Nc7n[nH]c8ccc(Cc9cc(F)cc(F)c9)cc78)c(NC7CCOCC7)c6)CC5)CC4)cc3C2=O)C(=O)N1 (centres unmarked) [TR-281, N-(5-(3,5-difluorobenzyl)-1H-indazol-3-yl)-4-(4-(1-((2-(2,6-dioxopiperidin-3-yl)-1,3-dioxoisoindolin-5-yl)methyl)piperidin-4-yl)piperazin-1-yl)-2-((tetrahydro-2H-pyran-4-yl)amino)benzamide]	17.4		

The remaining lines, values behind:

Compound	percent degradation of TPM3-TRKA protein at 0.01 µM (TPM3-TRKA fusion protein; [1]) [%]	IC50 (KM12 cells; [2]) [nM]	percent degradation of TPM3-TRKA protein at 0.01 µM (TPM3-TRKA fusion protein; KM12, 16 h) [%]	IC50 (KM12 cells; KM12, 72 h) [nM]
Cn1c(=O)n(C2CCC(=O)NC2=O)c2ccc(C#CCCN3CCN(c4cccc(-c5cnc6ccc(N7CCC[C@@H]7c7cccc(F)c7)nn56)n4)CC3)cc21 (stereo partly drawn) [TR-260, 3-(5-(4-(4-(6-(6-((R)-2-(3-fluorophenyl)pyrrolidin-1-yl)imidazo[1,2-b]pyridazin-3-yl)pyridin-2-yl)piperazin-1-yl)but-1-yn-1-yl)-3-methyl-2-oxo-2,3-dihydro-1H-benzo[d]imidazol-1-yl)piperidine-2,6-dione]	> 80	26.4		
O=C1CCC(N2C(=O)c3ccc(CN4CC(N5CCN(c6ccc(C(=O)Nc7n[nH]c8ccc(Cc9cc(F)cc(F)c9)cc78)cc6)CC5)C4)cc3C2=O)C(=O)N1 (centres unmarked) [TR-261, N-(5-(3,5-Difluorobenzyl)-1H-indazol-3-yl)-4-(4-(1-((2-(2,6-dioxopiperidin-3-yl)-1,3-dioxoisoindolin-S-yl)methyl)azetidin-3-yl)piperazin-1-yl)benzamide]			50 to 80	366
O=C1CCC(N2C(=O)c3ccc(CN4CC(CN5CCN(c6ccc(C(=O)Nc7n[nH]c8ccc(Cc9cc(F)cc(F)c9)cc78)cc6)CC5)C4)cc3C2=O)C(=O)N1 (centres unmarked) [TR-262, N-(5-(3,5-Difluorobenzyl)-1H-indazol-3-yl)-4-(4-((1-((2-(2,6-dioxopiperidin-3-yl)-1,3-dioxoisoindolin-5-yl)methyl)azetidin-3-yl)methyl)piperazin-1-yl)benzamide]	> 80	81		
O=C1CCC(N2C(=O)c3ccc(NCCN4CCN(c5ccc(C(=O)Nc6n[nH]c7ccc(Cc8cc(F)cc(F)c8)cc67)cc5)CC4)cc3C2=O)C(=O)N1 (centres unmarked) [TR-263, N-(5-(3,5-difluorobenzyl)-1H-indazol-3-yl)-4-(4-(2-((2-(2,6-dioxopiperidin-3-yl)-1,3-dioxoisoindolin-5-yl)amino)ethyl)piperazin-1-yl)benzamide]	50 to 80	19.2		
O=C1CCC(N2C(=O)c3ccc(NCC(=O)N4CCN(c5ccc(C(=O)Nc6n[nH]c7ccc(Cc8cc(F)cc(F)c8)cc67)cc5)CC4)cc3C2=O)C(=O)N1 (centres unmarked) [TR-264, N-(5-(3,5-difluorobenzyl)-1H-indazol-3-yl)-4-(4-((2˜ (2,6-dioxopiperidin-3-yl)-1,3-dioxoisoindolin-5-yl)glycyl)piperazin-1-yl)benzamide]	> 80	9.9		
O=C1CCC(N2C(=O)c3ccc(N4CC(CN5CCN(c6ccc(C(=O)Nc7n[nH]c8ccc(Cc9cc(F)cc(F)c9)cc78)cc6)CC5)C4)cc3C2=O)C(=O)N1 (centres unmarked) [TR-265, N-(5˜ (3,5-difluorobenzyl)-1H-indazol-3-yl)-4-(4-((1-(2-(2,6-dioxopiperidin-3-yl)-1,3-dioxoisoindolin-5-yl)azetidin-3-yl)methyl)piperazin-1-yl)benzamide]	> 80	13.3		
O=C1CCC(N2C(=O)c3ccc(NCC(=O)N4CCN(c5ccc(C(=O)Nc6n[nH]c7ccc(Cc8cc(F)cc(F)c8)cc67)c(NCCF)c5)CC4)cc3C2=O)C(=O)N1 (centres unmarked) [TR-266, N-(5-(3,5-difluorobenzyl)-1H-indazol-3-yl)-4-(4˜ ((2-(2,6-dioxopiperidin-3-yl)-1,3-dioxoisoindolin-5-yl)glycyl)piperazin-1-yl)-2-((2-fluoroethyl)amino)benzamide]	> 80	7.2		
O=C1CCC(N2C(=O)c3ccc(N4CC(CN5CCN(c6ccc(C(=O)Nc7n[nH]c8ccc(Cc9cc(F)cc(F)c9)cc78)c(NCCF)c6)CC5)C4)cc3C2=O)C(=O)N1 (centres unmarked) [TR-267, N-(5-(3,5-difluorobenzyl)-1H-indazol-3-yl)-4-(4-((1-(2-(2,6-dioxopiperidin-3-yl)-1,3-dioxoisoindolin-5-yl)azetidin-3-yl)methyl)piperazin-1-yl)-2-((2-fluoroethyl)amino)benzamide]	> 80	11.7		
O=C1CCC(N2C(=O)c3ccc(NCCN4CCN(c5ccc(C(=O)Nc6n[nH]c7ccc(Cc8cc(F)cc(F)c8)cc67)c(NCCF)c5)CC4)cc3C2=O)C(=O)N1 (centres unmarked) [TR-268, N-(5-(3,5-Difluorobenzyl)-1H-indazol-3-yl)-4-(4-(2-((2-(2,6-dioxopiperidin-3-yl)-1,3-dioxoisoindolin-5-yl)amino)ethyl)piperazin-1-yl)-2-((2-fluoroethyl)amino)benzamide]	> 80	6.2		
O=C1CCC(N2C(=O)c3ccc(N4CCC(N5CCN(c6ccc(C(=O)Nc7n[nH]c8ccc(Cc9cc(F)cc(F)c9)cc78)c(NC7CCOCC7)c6)CC5)CC4)cc3C2=O)C(=O)N1 (centres unmarked) [TR-280, N-(5-(3,5-difluorobenzyl)-1H-indazol-3-yl)-4-(4-(1-(2-(2,6-dioxopiperidin-3-yl)-1,3-dioxoisoindolin-5-yl)piperidin-4-yl)piperazin-1-yl)-2-((tetrahydro-2H-pyran-4-yl)amino)benzamide]			> 80	4.3
